For data set [1], the system named is CYP2D6. To be noted: Kupfer et al. 1984; cited from earlier work.
Data set [2] deals with panel of human P450 enzymes. The data set is described as follows: Selectivity in a panel of cDNA-expressed P450 enzymes (dealkylation). To be noted: FIGS. 1, 2, and 3. Format: biochemical. The procedure: The selectivity of various P450 isoforms for dealkylation of compounds Ia, Ib and Ic was examined using a panel of commercially available human cDNA-expressed enzymes. A substrate that is selective for a single P450 isoform (substrate is catalytically turned over by a single P450 isoform) is a desirable trait in that its activity may be examined within a heterogeneous mixture of enzymes, for example, in human liver microsomes.
Example Compounds Ia, Ib and Ic. Compounds Ia, Ib and Ic were incubated as described in the examples (1) above except that the enzyme source consisted of one each of several different commercially available, baculovirus/insect cell expressed human cytochrome P450 enzymes (SUPERSOME®, GENTEST Corporation).

The target of data set [3] is T1, CYP2D6 (Homo sapiens, UniProt P10635). The experiment in a line: CYP2D6 specificity in human liver microsomes with and without quinidine. Format: biochemical. On the set-up: purchased GENTEST Corporation P217; host or cells: baculovirus/insect cell (SUPERSOMES). To be noted: for pmole Product with quinidine: 5 uM quinidine; for pmole Product with quinidine / pmole Product: 5.0 uM compound I, 1.0 mg/ml HLM; for pmole Product: without quinidine. The procedure: Human liver microsomes (HLM) contain several drug (xenobiotic) metabolizing cytochromes P450. When HLM are used as an enzyme source, it is critical that the probe biotransformation be specifically catalyzed by the enzyme of interest.
After incubation, 100 ul of the reaction was added to 1.9 ml of 100 mM Tris (pH 9) and the fluorescence was determined with excitation at 390 nm and emission at 460 nm in a spectrofluorometer. The activity was quantitated by comparing to a standard curve of 3-[2-(diethylamino)ethyl]-7-hydroxy-4-methylcoumarin hydrochloride (Table III): […]
On the technique in general: Microsomes from liver hold many membrane-bound enzymes, among them those of drug oxidation.

Data set [4] has as its target T1, CYP2D6. The experiment in a line: Enzyme kinetics with cDNA-expressed CYP2D6 (fluorometric). Format: biochemical. On the set-up: purchased GENTEST Corporation P217; host or cells: baculovirus/insect cell (SUPERSOMES). The procedure:
(§1) The evaluation of compounds of Formula I were initially performed by measuring the kinetics of turnover using cDNA-expressed CYP2D6. Vmax and Km values are important for the optimization of the assay conditions and for setting the parameters for inhibition experiments. […] However, compounds Ib and Ic, contain the 4-trifluoromethyl group (R4) which shifts the fluorescent properties of these molecules to longer wavelengths.
(§2) Example Compound Ia. […] The substrate, compound Ia, was prepared in pH 7.4 potassium phosphate buffer (0.1 M). […] The final cofactor concentrations were 0.0082 mM NADP, 0.41 mM glucose-6-phosphate and 0.2 U/ml glucose-6-phosphate dehydrogenase. Final incubation volume was 0.2 ml. […] The activity was quantified by comparing to a standard curve of 3-[2-(N,N-diethylamino)ethyl]-7-hydroxy-4-methylcoumarin hydrochloride. Apparent Km and Vmax values were calculated by non-linear kinetics using SigmaPlot 4.0 software.
(§3) Example Compounds Ib and Ic. The following procedure applies to compounds Ib and Ic as substrates. […] The substrates, Ib and Ic, were prepared in acetonitrile. […] Final incubation volume was 0.2 ml. […] The enzyme activity was quantified by comparing to a standard curve of 3-[2-(N, N-diethyl-N-methylammonium)ethyl]-7-hydroxy-4-trifluoromethylcoumarin iodide (compound IIb) when assaying for metabolism of Ib or 3-[2-(diethylamino)ethyl]-7-hydroxy-4-trifluoromethyl coumarin (compound IIc) when assaying for metabolism of Ic. Apparent Km and Vmax values were calculated by non-linear kinetics using SigmaPlot 4.0 software.

For data set [5], the target named is T1, CYP2D6. The data set is described as follows: biochemical.
Data set [6] deals with CYP2D6. As to conditions: Crespi et al. 1997; cited from earlier work.
Data set [7] has as its system other human cytochromes P450. As to conditions: Crespi et al. 1997; cited from earlier work.
Substrate in data set [8]: CC[N+](C)(CC)CCc1c(C(F)(F)F)c2ccc(OC)cc2oc1=O
The experiment in a line: Enzyme kinetics with cDNA-expressed CYP2D6 (fluorometric). Format: biochemical. To be noted: cDNA-expressed human CYP2D6, 37° C., pH 7.4. The protocol: as §1, §2, §3

Substrate in data set [9]: CCN(CC)CCc1c(C(F)(F)F)c2ccc(OC)cc2oc1=O
The data set is described as above. The format is biochemical. To be noted: cDNA-expressed human CYP2D6, 37° C., pH 7.4. The protocol:
as §1, §2, §3

Substrate in data set [10]: CC[N+](C)(CC)CCc1c(C)c2ccc(OC)cc2oc1=O
The data set is described as above. The format is biochemical. As to conditions: cDNA-expressed human CYP2D6, 37° C., pH 7.4. The procedure:
as §1, §2, §3

Substrate in data set [11]: CCOc1ccc2cc(C#N)c(=O)oc2c1
Described as above. The format is biochemical. To be noted: cDNA-expressed human CYP2D6, 37° C., pH 7.4.

Values joined by “and” are separate entries in the source; they are usually repeats but may differ in a detail not shown here. Equal entries are not always repeated.

Consider `COc1ccc2c(c1)[C@]13CCCC[C@@H]1[C@H](C2)N(C)CC3` [Dextromethorphan], for which the “metabolism by CYP2D6” value in the data set with CYP2D6 [1] is reported as “O-demethylated by CYP2D6”.

As to `CC[N+](C)(CC)CCc1c(C)c2ccc(OC)cc2oc1=O` [Compound Ia, 3-[2-(N,N-diethyl-N-methylammonium)ethyl]-7-methoxy-4-methylcoumarin], in data set [2], the “catalytic selectivity for dealkylation” value is “selective for CYP2D6”. For the same molecule, the “pmole Product with quinidine” value on CYP2D6 [3] (0 min) was 0 pmol; at CYP2D6 [3] (5 min) it was 0 pmol; at CYP2D6 [3] (10 min), 0 pmol; on CYP2D6 [3] (15 min) it was -0.7 pmol. Moreover, the “pmole Product” value on CYP2D6 [3] (0 min) worked out at 0 pmol; at CYP2D6 [3] (5 min), 3.3 pmol; on CYP2D6 [3] (10 min) it was 6.3 pmol; on CYP2D6 [3] (15 min), 8.5 pmol. Also, the “measurable metabolism / CYP2D6 specificity” value at CYP2D6 [3] (human liver microsomes, quinidine inhibition) is listed as “exclusively due to CYP2D6”. Also, at CYP2D6 [4], the catalytic turnover entry was “highest catalytic turnover”.

A word on the IC50: it is the midpoint of a concentration-inhibition curve. A lower IC50 goes with greater potency in that assay. `CCc1cccc2cc(C(O)CNC(C)(C)C)oc12` (centres unmarked) [Bufuralol]: at CYP2D6 [5], the IC50 is 27 µM and 17 µM and 23.3 µM and 104 µM.

Consider `CC[N+](C)(CC)CCc1c(C(F)(F)F)c2ccc(OC)cc2oc1=O` [Compound Ib, 3-[2-(N,N-diethyl-N-methylammonium)ethyl]-7-methoxy-4-trifluoromethylcoumarin iodide], for which the “catalytic selectivity for dealkylation” value in data set [2] was “also substrates for other human P450 enzymes”. The catalytic turnover entry on CYP2D6 [4] was “lower catalytic turnover compared to compound Ia”.

For `N=C(N)N1CCc2ccccc2C1` [Debrisoquine], the IC50 on CYP2D6 [5] was 29 µM and 20 µM and 10.6 µM and 105 µM.

As for `CCN(CC)CCc1c(C(F)(F)F)c2ccc(OC)cc2oc1=O` [Compound Ic, 3-[2-(diethylamino)ethyl]-7-methoxy-4-trifluoromethylcoumarin], the “catalytic selectivity for dealkylation” value in data set [2] was “also substrates for other human P450 enzymes”. Further, the catalytic turnover result at CYP2D6 [4] is “lower catalytic turnover compared to compound Ia”.

Regarding `NCCC(Oc1ccc(C(F)(F)F)cc1)c1ccccc1` (centres unmarked) [Norfluoxetine], at CYP2D6 [5], the IC50 was 8.4 µM and 1.1 µM.

`CCOc1ccc2cc(C#N)c(=O)oc2c1` [CEC, 3-cyano-7-ethoxycoumarin]: the enzymatic turnover entry in the data set on CYP2D6 [6] was “low enzymatic turnover”. Moreover, in [7], the “metabolism by other human cytochromes P450” value is “significantly metabolized by other human cytochromes P450” and the specificity of substrate result is “poor specificity”.

B1: CYP2D6 (Homo sapiens) (protein)
chain: MGLEALVPLAVIVAIFLLLVDLMHRRQRWAARYPPGPLPLPGLGNLLHVDFQNTPYCFDQLRRRFGDVFSLQLAWTPVVVLNGLAAVREALVTHGEDTADRPPVPITQILGFGPRSQGVFLARYGPAWREQRRFSVSTLRNLGLGKKSLEQWVTEEAACLCAAFANHSGRPFRPNGLLDKAVSNVIASLTCGRRFEYDDPRFLRLLDLAQEGLKEESGFLREVLNAVPVLLHIPALAGKVLRFQKAFLTQLDELLTEHRMTWDPAQPPRDLTEAFLAEMEKAKGNPESSFNDENLRIVVADLFSAGMVTTSTTLAWGLLLMILHPDVQRRVQQEIDDVIGQVRRPEMGDQAHMPYTTAVIHEVQRFGDIVPLGVTHMTSRDIEVQGFRIPKGTTLITNLSSVLKDEAVWEKPFRFHPEHFLDAQGHFVKPEAFLPFSAGRRACLGEPLARMELFLFFTSLLQHFSFSVPTGQPRPSHHGVFAFLVSPSPYELCAVPR
notes: purchased GENTEST Corporation P217; host or cells: baculovirus/insect cell (SUPERSOMES)
In general, kcat refers to the number of substrate molecules converted per active site and unit of time at saturation. As usually defined, the Km is the concentration of substrate that gives half-maximal velocity. As for B1, the kcat stood at 0.00267 s⁻¹ in [8], 0.0033 s⁻¹ in data set [9], 0.0167 s⁻¹ in [10] and 0.000283 s⁻¹ in data set [11]. In addition, the Km in data set [8] (other: apparent Km) is 0.8 µM; in [9] (other: apparent Km), 3.3 µM; in data set [11] (other: apparent Km), 67 µM.
